One test has as its target hOX1R (Homo sapiens, UniProt O43613). Briefly: FLIPR Ca2+ flux assay, hOX1R. It is filed as cell-based. The settings on record: CHO cells; agonist 70 pM Ala-6,12 orexin-A; rat orexin-1 receptor; read-out: hOX1R FLIPR IC50. A general note: Calcium assays in cells follow changes in intracellular calcium, usually with a dye or a luminescent sensor.
The target in the next test is human orexin-2 receptor (Homo sapiens (Human), UniProt O43614). Briefly: FLIPR Ca2+ flux assay, hOX2R. It counts as cell-based. Particulars: CHO cells expressing human orexin-2 receptor; agonist 70 pM Ala-6,12 orexin-A. Here is the method: In a typical experiment the OX1 and OX2 receptor antagonistic activity of the compounds of the present invention was determined in accordance with the following experimental method. For intracellular calcium measurements, Chinese hamster ovary (CHO) cells expressing the rat orexin-1 receptor or the human orexin-2 receptor, are grown in Iscove's modified DMEM containing 2 mM L-glutamine, […], 1% hypoxanthine-thymidine supplement, 100 U/ml penicillin, 100 μg/ml streptomycin and 10% heat-inactivated fetal calf serum (FCS). The cells are seeded at 20,000 cells/well into Becton-Dickinson black 384-well clear bottom sterile plates coated with poly-D-lysine. All reagents were from GIBCO-Invitrogen Corp. The seeded plates are incubated overnight at 37° C. and 5% CO2. Ala-6,12 human orexin-A as the agonist is prepared as a 1 mM stock solution in 1% bovine serum albumin (BSA) and diluted in assay buffer (HBSS containing 20 mM HEPES, 0.1% BSA and 2.5 mM probenecid, pH7.4) for use in the assay at a final concentration of 70 pM. Test compounds are prepared as 10 mM stock solution in DMSO, then diluted in 384-well plates, first in DMSO, then assay buffer. On the day of the assay, cells are washed 3 times with 100 μl assay buffer and then incubated for 60 min (37° C., 5% CO2) in 60 μl assay buffer containing 1 μM Fluo-4AM ester, 0.02% pluronic acid, and 1% BSA. The dye loading solution is then aspirated and cells are washed 3 times with 100 μl assay buffer. 30 μl of that same buffer is left in each well. Within the Fluorescent Imaging Plate Reader (FLIPR, Molecular Devices), test compounds are added to the plate in a volume of 25 μl, incubated for 5 min and finally 25 μl of agonist is added. Fluorescence is measured for each well at 1 second intervals for 5 minutes and the height of each fluorescence peak is compared to the height of the fluorescence peak induced by 70 pM Ala-6,12 orexin-A with buffer in place of antagonist. […] The intrinsic orexin receptor antagonist activity of a compound which may be used in the present invention may be determined by these assays.
Chain of human orexin-2 receptor (O43614 whole entry): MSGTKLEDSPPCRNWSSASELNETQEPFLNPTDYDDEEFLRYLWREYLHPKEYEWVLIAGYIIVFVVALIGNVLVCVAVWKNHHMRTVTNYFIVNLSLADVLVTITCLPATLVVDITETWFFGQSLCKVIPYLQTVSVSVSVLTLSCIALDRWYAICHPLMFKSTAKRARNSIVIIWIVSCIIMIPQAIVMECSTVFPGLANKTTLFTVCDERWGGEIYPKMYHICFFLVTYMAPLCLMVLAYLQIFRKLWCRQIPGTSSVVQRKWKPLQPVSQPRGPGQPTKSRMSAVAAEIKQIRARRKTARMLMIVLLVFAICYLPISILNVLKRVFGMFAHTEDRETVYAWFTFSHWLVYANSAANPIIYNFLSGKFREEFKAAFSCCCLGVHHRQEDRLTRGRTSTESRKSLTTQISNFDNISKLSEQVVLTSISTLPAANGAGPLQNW

pIC50: −log10 of the molar value.

The term pIC50 denotes the negative decadic logarithm of the IC50, by convention in mol/L.

As to `Cc1cccc(-c2coc([C@@H]3CC[C@@H](C)N(C(=O)c4ccccc4-n4nccn4)C3)n2)c1` [Example 7, (2-(2H-1,2,3-Triazol-2-yl)phenyl)((2R,5R)-2-methyl-5-(4-(m-tolyl)oxazol-2-yl)piperidin-1-yl)methanone], the pIC50 at hOX1R was 6.59; at human orexin-2 receptor, 6.39.

For the molecule `C[C@@H]1CC[C@@H](c2nc(C(C)(C)O)co2)CN1C(=O)c1ccccc1-n1nccn1` [Example 10, (2-(2H-1,2,3-Triazol-2-yl)phenyl)((2R,5R)-5-(4-(2-hydroxypropan-2-yl)oxazol-2-yl)-2-methylpiperidin-1-yl)methanone], the pIC50 is 5.57 on hOX1R and 7.23 at human orexin-2 receptor.

In the case of `C[C@@H]1CC[C@@H](c2nc(C#N)c(Br)o2)CN1C(=O)c1ccccc1-n1nccn1` [Example 11, 2-((3R,6R)-1-(2-(2H-1,2,3-Triazol-2-yl)benzoyl)-6-methylpiperidin-3-yl)-5-bromooxazole-4-carbonitrile], the pIC50 on hOX1R was < 5.00; at human orexin-2 receptor it was 6.46.

As for `COC(=O)c1nc([C@@H]2CC[C@@H](C)N(C(=O)c3ccccc3-n3nccn3)C2)oc1Br` [Example 12, Methyl 2-((3R,6R)-1-(2-(2H-1,2,3-Triazol-2-yl)benzoyl)-6-methylpiperidin-3-yl)-5-bromooxazole-4-carboxylate], the pIC50 at hOX1R is 6.06; at human orexin-2 receptor it was 7.52.

Consider `Cc1oc([C@@H]2CC[C@@H](C)N(C(=O)c3ccccc3-n3nccn3)C2)nc1C(C)(C)O` [Example 13, (2-(2H-1,2,3-Triazol-2-yl)phenyl)((2R,5R)-5-(4-(2-hydroxypropan-2-yl)-5-methyloxazol-2-yl)-2-methylpiperidin-1-yl)methanone], for which the pIC50 at hOX1R is 6.09; at human orexin-2 receptor, 7.89.

Take `C[C@@H]1CC[C@@H](c2nc(C(C)(C)O)c(C3CC3)o2)CN1C(=O)c1ccccc1-n1nccn1` [Example 14, (2-(2H-1,2,3-Triazol-2-yl)phenyl)((2R,5R)-5-(5-cyclopropyl-4-(2-hydroxypropan-2-yl)oxazol-2-yl)-2-methylpiperidin-1-yl)methanone]: the pIC50 at hOX1R was 7.68; on human orexin-2 receptor, 7.72.

Regarding `CC(C)c1oc([C@@H]2CC[C@@H](C)N(C(=O)c3ccccc3-n3nccn3)C2)nc1C(C)(C)O` [Example 15, (2-(2H-1,2,3-Triazol-2-yl)phenyl)((2R,5R)-5-(4-(2-hydroxypropan-2-yl)-5-isopropyloxazol-2-yl)-2-methylpiperidin-1-yl)methanone], the pIC50 at hOX1R was 8.00; on human orexin-2 receptor it was 7.77.

As to `C[C@@H]1CC[C@@H](c2nc(C(C)(C)C)co2)CN1C(=O)c1ccccc1-n1nccn1` [Example 16, (2-(2H-1,2,3-Triazol-2-yl)phenyl)((2R,5R)-5-(4-(tert-butyl)oxazol-2-yl)-2-methylpiperidin-1-yl)methanone], the results for the pIC50 at hOX1R and at human orexin-2 receptor were 6.54 and 7.22, respectively.

Consider `C[C@@H]1CC[C@@H](c2nc(-c3ccccc3)co2)CN1C(=O)c1ccccc1-n1nccn1` [Example 17, (2-(2H-1,2,3-Triazol-2-yl)phenyl)((2R,5R)-2-methyl-5-(4-phenyloxazol-2-yl)piperidin-1-yl)methanone], for which the negative-log IC50 (pIC50) on hOX1R was 6.92; at human orexin-2 receptor, 7.42.

As to `Cc1oc([C@@H]2CC[C@@H](C)N(C(=O)c3ccccc3-n3nccn3)C2)nc1[C@@H](O)C(F)(F)F` [Example 18, (2-(2H-1,2,3-Triazol-2-yl)phenyl)((2R,5R)-2-methyl-5-(5-methyl-4-((R)-2,2,2-trifluoro-1-hydroxyethyl)oxazol-2-yl)piperidin-1-yl)methanone], the pIC50 at hOX1R is 6.38; at human orexin-2 receptor it was 7.86.

Take `Cc1oc([C@@H]2CC[C@@H](C)N(C(=O)c3ccccc3-n3nccn3)C2)nc1[C@H](O)C(F)(F)F` [Example 19, (2-(2H-1,2,3-triazol-2-yl)phenyl)((2R,5R)-2-methyl-5-(5-methyl-4-((S)-2,2,2-trifluoro-1-hydroxyethyl)oxazol-2-yl)piperidin-1-yl)methanone]: the pIC50 at hOX1R was 6.10; at human orexin-2 receptor, 7.62.

For `Cc1oc([C@@H]2CC[C@@H](C)N(C(=O)c3ccccc3C3(C#N)CC3)C2)nc1C(C)(C)O` [Example 20, 1-(2-((2R,5R)-5-(4-(2-Hydroxypropan-2-yl)-5-methyloxazol-2-yl)-2-methylpiperidine-1-carbonyl)phenyl)cyclopropanecarbonitrile], the pIC50 at hOX1R is 6.37; on human orexin-2 receptor, 7.78.

`Cc1oc([C@@H]2CC[C@@H](C)N(C(=O)c3ccccc3C3(C#N)CCOCC3)C2)nc1C(C)(C)O` [Example 21]: the pIC50 on hOX1R was < 5.00; at human orexin-2 receptor, 6.30.

As to `CCOc1ncccc1C(=O)N1C[C@H](c2nc(C(C)(C)O)c(C)o2)CC[C@H]1C` [Example 22, (2-Ethoxypyridin-3-yl)((2R,5R)-5-(4-(2-hydroxypropan-2-yl)-5-methyloxazol-2-yl)-2-methylpiperidin-1-yl)methanone], the pIC50 at hOX1R was < 5.00; on human orexin-2 receptor, 6.53.

For the molecule `Cc1oc([C@@H]2CC[C@@H](C)N(C(=O)c3cccc4ccnn34)C2)nc1C(C)(C)O` [Example 23, ((2R,5R)-5-(4-(2-Hydroxypropan-2-yl)-5-methyloxazol-2-y1)-2-methylpiperidin-1-yl)(pyrazolo[1,5-a]pyridin-7-yl)methanone], the negative-log IC50 (pIC50) at hOX1R is < 5.00; at human orexin-2 receptor, 6.96.

Turning to `Cc1oc([C@@H]2CC[C@@H](C)N(C(=O)c3ccccc3-n3ncnn3)C2)nc1C(C)(C)O` [Example 24, (2-(2H-Tetrazol-2-yl)phenyl)((2R,5R)-5-(4-(2-hydroxypropan-2-yl)-5-methyloxazol-2-yl)-2-methylpiperidin-1-yl)methanone], the results for the pIC50 at hOX1R and at human orexin-2 receptor were 5.42 and 7.87, respectively.

Turning to `Cc1oc([C@@H]2CC[C@@H](C)N(C(=O)c3ccsc3-n3nccn3)C2)nc1C(C)(C)O` [Example 25, (2-(2H-1,2,3-Triazol-2-yl)thiophen-3-yl)((2R,5R)-5-(4-(2-hydroxypropan-2-yl)-5-methyloxazol-2-yl)-2-methylpiperidin-1-yl)methanone], the pIC50 is 5.78 on hOX1R and 7.97 at human orexin-2 receptor.

Turning to `Cc1oc([C@@H]2CC[C@@H](C)N(C(=O)c3ccsc3-c3ncccn3)C2)nc1C(C)(C)O` [Example 26, ((2R, 5R)-5-(4-(2-Hydroxypropan-2-yl)-5-methyloxazol-2-yl)-2-methylpiperidin-1-yl)(2-(pyrimidin-2-yl)thiophen-3-yl)methanone], the pIC50 at hOX1R is 5.87; on human orexin-2 receptor it was 7.38.

With `Cc1oc([C@@H]2CC[C@@H](C)N(C(=O)c3ccccc3OC(F)(F)F)C2)nc1C(C)(C)O` [Example 28, ((2R,5R)-5-(4-(2-Hydroxypropan-2-yl)-5-methyloxazol-2-yl)-2-methylpiperidin-l-yl)(2-(trifluoromethoxy)phenyl)methanone], the results for the negative-log IC50 (pIC50) at hOX1R and on human orexin-2 receptor were 5.85 and 7.85, respectively.

On to `Cc1oc([C@@H]2CC[C@@H](C)N(C(=O)c3ccccc3OC(C)C)C2)nc1C(C)(C)O` [Example 29, ((2R,5R)-5-(4-(2-Hydroxypropan-2-yl)-5-methyloxazol-2-yl)-2-methylpiperidin-1-yl)(2-isopropoxyphenyl)methanone], for which the pIC50 at hOX1R is 5.70; at human orexin-2 receptor, 7.69.

On to `Cc1oc([C@@H]2CC[C@@H](C)N(C(=O)c3nc(Cl)sc3C(C)C)C2)nc1C(C)(C)O` [Example 32, (2-Chloro-5-isopropylthiazol-4-yl)((2R,5R)-5-(4-(2-hydroxypropan-2-yl)-5-methyloxazol-2-yl)-2-methylpiperidin-1-yl)methanone], for which the pIC50 at hOX1R is < 5.00; at human orexin-2 receptor, 6.80.

For `COC(=O)c1ccccc1C(=O)N1C[C@H](c2nc(C(C)(C)O)c(C)o2)CC[C@H]1C` [Example 33, Methyl 2-((2R,5R)-5-(4-(2-hydroxypropan-2-yl)-5-methyloxazol-2-yl)-2-methylpiperidine-1-carbonyl)benzoate], the pIC50 at hOX1R was 5.00; at human orexin-2 receptor, 7.64.

On to `Cc1oc([C@@H]2CC[C@@H](C)N(C(=O)c3ccccc3-c3ncccn3)C2)nc1C(C)(C)O` [Example 34, ((2R,5R)-5-(4-(2-Hydroxypropan-2-yl)-5-methyloxazol-2-yl)-2-methylpiperidin-1-yl)(2-(pyrimidin-2-yl)phenyl)methanone], for which the pIC50 at hOX1R was 5.66; at human orexin-2 receptor, 7.25.

As for `Cc1oc([C@@H]2CC[C@@H](C)N(C(=O)c3ccc(F)cc3-n3nccn3)C2)nc1C(C)(C)O` [Example 37], the negative logarithm of the IC50 (pIC50) is 5.87 on hOX1R and 7.72 on human orexin-2 receptor.

The values above are taken from patent US9828368B2 (MERCK SHARP & DOHME CORP., priority 2013, dated 2017).
